# Results reported in patent US20130310387A1, “Monocyclic Heteroaryl Cycloalkyldiamine Derivatives” (NOVARTIS AG, priority 2012, published 2013).
# Key:
# [1] = tested on: phosphorylation of BLNK in Ramos B cells; assay: Anti IgM-induced phosphorylation of BLNK in Ramos B cells; assay type: cell-based; conditions: Homo sapiens, 0.25 h, anti IgM 15 min, flow cytometry anti-BLNK (pY84)
# Experimental: Anti IgM-induced phosphorylation of BLNK (BLNK=B cell linker (SLP65=SH2 domain containing leukocyte protein of 65 kDa)) in Ramos B cells: Ramos B cells in a volume of 25 μl were incubated with 25 μl of the compound solution at 2-fold the desired final concentration for 30 min. at 37° C. Then 50 μL anti IgM was added, mixed and incubated for 15 min. at 37° C. In each experiment 8-fold serial dilutions of compounds were tested. The stimulation was stopped by addition of 100 μL/well of PFA (para formaldehyde) I PBS (phosphate buffered saline) (final conc. 2% PFA) for fixation and incubated for 15 min. at 37° C., then centrifuged at 1300 rpm for 3 min and permeabilized by resuspending the cell pellet in 100 μL methanol 90% and further incubated for 30 min at 4° C. The cells were then washed and phosphoproteins were detected by flow cytometry using fluorescently labeled anti-BLNK ([…]) (BD Biosciences).
# TMD-8 cells = assay: cells; conditions: Homo sapiens, TMD8, 96 h
# OCI-Ly10 cells = assay: B-cell lymphoma cell proliferation (WST-1 assay), OCI-Ly10; assay type: cell-based; conditions: Homo sapiens, 72 h; OCI-Ly10, 3 days of incubation
# Experimental: (§1) Cell proliferation was determined using the WST-1 assay (Roche, Mannheim, Germany), which measures the metabolic activity of the cells. Briefly, 5×10^5 TMD-8, OCI-Ly3, and OCI-Ly10 cells/well and 10×10^5 HBL-1 cells/well were seeded in triplicate in 96-well plates and were incubated with various concentrations of compounds to be tested for 3 days. The cell proliferation reagent WST-1 (10 μl/well) was added to the cells for 1-2 hours depending on the cell type which were cultured in 200 μl of medium. The absorbance was then measured with an enzyme-linked immunosorbent assay plate reader at a wavelength of 450 nm.
# OCI-Ly3 cells = assay: B-cell lymphoma cell proliferation (WST-1 assay), OCI-Ly3; assay type: cell-based; conditions: OCI-Ly3, 3 days of incubation
# Experimental: as §1, with “Briefly, 5×10^5 TMD-8, OCI-Ly3, and OCI-Ly10 cells/well and 10×10^5 HBL-1 cells/well were seeded in triplicate in 96-well plates and were incubated with various concentrations of compounds to be tested for 3 days.” left out
smiles,measurement,setting,value
"NC(=O)c1nnc(N[C@@H]2CCCC[C@@H]2N)nc1Nc1cccc2cc[nH]c12 [Example 1.1, 3-((1R,2S)-2-Amino-cyclohexylamino)-5-(1H-indol-7-ylamino)-[1,2,4]triazine-6-carboxylic acid amide]",IC50,[1],106 nM
same,GI50,TMD-8 cells,281 nM
same,GI50,OCI-Ly10 cells,25 nM
same,GI50,OCI-Ly3 cells,No inhibition
